Laboratory results as given in patent US8436187B2, “1-heterocyclylsulfonyl, 3-aminomethyl, 5- (hetero-) aryl substituted 1-H-pyrrole derivatives as acid secretion inhibitors” (Takeda Pharmaceutical Company Limited, priority 2005, dated 2013).

Legend:
[1] = target: T1, proton, potassium-adenosine triphosphatase (H+,K+-ATPase) (Sus scrofa, UniProt P19156); test: H+,K+-ATPase inhibitory activity test; type: biochemical; settings: swine gastric mucous membrane microsomal fraction; pH 6.5, 37° C.
T1 construct: The obtained microsomal fraction was used as a proton, potassium—adenosine triphosphatase standard product; from tissue; host or cells: swine stomach, gastric mucous membrane microsomal fraction
T1 sequence (P19156 2-1034 limits assumed): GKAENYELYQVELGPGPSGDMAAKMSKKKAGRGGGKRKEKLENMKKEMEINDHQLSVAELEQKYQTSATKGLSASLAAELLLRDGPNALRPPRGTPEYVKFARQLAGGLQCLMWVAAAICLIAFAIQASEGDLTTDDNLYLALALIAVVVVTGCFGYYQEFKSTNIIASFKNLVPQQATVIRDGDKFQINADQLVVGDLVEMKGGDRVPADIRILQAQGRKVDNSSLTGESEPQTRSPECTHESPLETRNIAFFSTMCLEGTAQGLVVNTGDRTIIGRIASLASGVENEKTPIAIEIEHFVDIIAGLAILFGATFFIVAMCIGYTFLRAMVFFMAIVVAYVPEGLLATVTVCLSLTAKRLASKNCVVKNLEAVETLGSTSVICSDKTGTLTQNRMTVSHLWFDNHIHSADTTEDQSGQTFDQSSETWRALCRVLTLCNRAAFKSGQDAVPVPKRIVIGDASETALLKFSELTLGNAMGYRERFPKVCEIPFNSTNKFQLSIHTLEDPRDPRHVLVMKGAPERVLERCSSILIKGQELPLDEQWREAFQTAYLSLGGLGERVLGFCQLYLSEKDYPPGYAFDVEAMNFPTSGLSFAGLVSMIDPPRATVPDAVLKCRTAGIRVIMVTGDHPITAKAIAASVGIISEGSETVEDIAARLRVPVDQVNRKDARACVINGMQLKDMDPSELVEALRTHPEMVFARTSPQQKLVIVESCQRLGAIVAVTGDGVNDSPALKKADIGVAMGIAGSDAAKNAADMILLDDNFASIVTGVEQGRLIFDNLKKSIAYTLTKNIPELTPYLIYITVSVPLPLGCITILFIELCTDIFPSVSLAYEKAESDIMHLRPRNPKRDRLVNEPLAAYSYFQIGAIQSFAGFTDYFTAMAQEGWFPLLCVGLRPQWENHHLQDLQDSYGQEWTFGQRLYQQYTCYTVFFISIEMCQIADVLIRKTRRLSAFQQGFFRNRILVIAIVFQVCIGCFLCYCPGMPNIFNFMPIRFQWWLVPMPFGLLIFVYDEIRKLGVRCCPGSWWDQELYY
T1 sequence (P18434 whole entry partner): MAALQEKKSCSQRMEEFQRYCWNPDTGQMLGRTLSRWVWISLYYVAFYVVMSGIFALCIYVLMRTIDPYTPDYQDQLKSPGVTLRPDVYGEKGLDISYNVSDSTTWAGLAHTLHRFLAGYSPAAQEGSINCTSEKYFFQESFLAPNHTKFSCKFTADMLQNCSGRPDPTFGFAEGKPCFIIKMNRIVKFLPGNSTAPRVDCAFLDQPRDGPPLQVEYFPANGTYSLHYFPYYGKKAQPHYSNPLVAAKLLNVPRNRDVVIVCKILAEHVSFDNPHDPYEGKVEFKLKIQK
Protocol: According to the method [Biochim. Biophys. Acta, 728, 31 (1983)] of Wallmark et al., a gastric mucous membrane microsomal fraction was prepared from the stomach of swine. First, the stomach was removed, washed with tap water, immersed in 3 mol/L brine, and the surface of the mucous membrane was wiped with a paper towel. The gastric mucous membrane was detached, chopped, and homogenized in a 0.25 mol/L saccharose solution (pH 6.8) containing 1 mmol/L EDTA and 10 mmol/L tris-hydrochloric acid using polytron (Kinematica). The obtained homogenate was centrifuged at 20,000×g for 30 min and the supernatant was centrifuged at 100,000×g for 90 min. The precipitate was suspended in 0.25 mol/L saccharose solution, superimposed on a 0.25 mol/L saccharose solution containing 7.5% Ficoll, and centrifuged at 100,000×g for 5 hr. […]
To 40 μL of a 50 mmol/L HEPES-tris buffer (5 mmol/L magnesium chloride, 10 mmol/L potassium chloride, 10 […], pH=6.5) containing 2.5 μg/mL (based on the protein concentration) of the enzyme standard product was added a test compound (5 μL) dissolved in a 10% aqueous dimethyl sulfoxide solution, and the mixture was incubated at 37° C. for 30 min. […] After allowing to stand at room temperature for 15 min, the resulting reaction product of inorganic phosphorus with malachite green was colorimetrically determined at a wavelength of 610 nm. […]

[2] = system: Human liver cancer-derived cell line HepG2; test: intracellular ATP content in HepG2 cells (ATPLite); type: cell-based; settings: HepG2, culture for one day, relative value to control (without drug), n≧3, average
Protocol: Human liver cancer-derived cell line HepG2 (ATCC No. HB-8065) was passaged using Dulbecco's Modified Eagle medium (DMEM; Invitrogen) containing 10% fetal bovine serum (FBS; TRACE SCIENTIFIC LTD.), 1 mmol/L sodium pyruvate (Invitrogen), 2 mmol/L L-glutamine (Invitrogen), 50 IU/mL penicillin (Invitrogen) and 50 μg/mL streptomycin (Invitrogen) at 5% CO2. 37° C. The test reagent was prepared with DMSO to 10 mM, and further diluted with DMEM medium containing 0.5% FBS, 1 mmol/L sodium pyruvate, 2 mmol/L L-glutamine, 50 IU/mL penicillin and 50 μg/mL streptomycin to a final concentration of DMSO of 0.1%. HepG2 (2×10^4 cells/well) was cultured on a 96 well white plate (Costar) with the test reagent at 5% CO2, 37° C. After culture for one day, the intracellular ATP content was measured using ATPLite™ (PerkinElmer Life Sciences). The results are shown in Table 24 (n≧3, average value±SD) as a relative value (%) to control (without addition of drug) at 30 μM.

Structure (SMILES)	IC50 [1]	ATP content (%, 30 μM) [2]
CNCc1cc(-c2ccc(Cl)cc2F)n(S(=O)(=O)c2cccnc2)c1.Cl.Cl [Example 34, 1-[5-(4-chloro-2-fluorophenyl)-1-(pyridin-3-ylsulfonyl)-1H-pyrrol-3-yl]-N-methylmethanamine dihydrochloride]	8.9 nM	53.6%
CNCc1cc(-c2ccccc2)n(S(=O)(=O)c2ccc(C)nc2)c1.Cl.Cl [Example 24, N-methyl-1-{1-[(6-methylpyridin-3-yl)sulfonyl]-5-phenyl-1H-pyrrol-3-yl}methanamine dihydrochloride]	34 nM	76.5%
